c1cc2c3c(cccc3c1)CC2
solubility (mole fraction)
Details	in acetone	in benzene	in isobutanol	in m-xylene	in n-propanol
283 K	0.0417	0.118	0.00926	0.109	0.00879
288 K	0.0491	0.131	–	0.129	–
288.1 K	–	–	0.0128	–	0.012
293 K	0.0587	–	–	0.143	–
293.2 K	–	0.142	0.0162	–	0.0144
298 K	0.0692	0.162	0.0205	0.163	0.0175
303 K	0.0788	0.187	–	–	–
303.1 K	–	–	–	0.188	–
303.3 K	–	–	0.0253	–	0.0208
308 K	–	–	0.0297	–	0.0246
308.1 K	0.0954	–	–	–	–
308.2 K	–	–	–	0.216	–
308.3 K	–	0.215	–	–	–
313 K	0.113	0.244	–	0.245	–
313.1 K	–	–	0.0353	–	0.0295
318 K	0.136	0.277	0.0435	0.281	0.0364
323 K	0.173	0.312	0.0565	0.321	0.0464

Source: BigSolDB 2.1
